Data taken from ChEMBL document CHEMBL3751791, “Alkenes with antioxidative activities from Murraya koenigii (L.) Spreng” (Bioorg Med Chem Lett, 2016).

Test: Antioxidative activity of the compound assessed as DPPH radical scavenging activity
Format: physicochemical

SMILES	IC50 [µM]
C=C[C@](C)(O)CC/C=C(C)/C=C/[C@@H](O[C@H]1O[C@@H](CO)[C@H](O)[C@@H](O)[C@@H]1O)C(C)(C)O	38.4
C=C[C@](C)(CC/C=C(\CO)CC/C=C(\C)C[C@@H](O)/C=C(\C)C(=O)O)O[C@H]1O[C@@H](CO)[C@H](O)[C@@H](O)[C@@H]1O	40.2
O=C(/C=C/c1ccc(O)c(O)c1)O[C@@H]1C[C@](O)(C(=O)O)C[C@@H](O)[C@H]1O [CHLOROGENIC ACID]	56.4
C=C[C@](C)(O)C[C@@H](O)/C=C(\C)[C@@H](O)CC=C(C)C	23.5
CC/C=C/C[C@H](O)/C=C/[C@H](O)[C@H](O)[C@H](O)CCCCC[C@H](C)O	25.4
